The values that follow come from PubChem BioAssay (NCI).

The structures appear in SMILES notation. Several values for one entry are separate records, joined by “and”; a condition that tells them apart may be missing. Equal entries are not always repeated.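 Exposure lasted 48 hours, with cells grown in 96-well plates and compounds tested at five concentrations. GI50: concentration for 50% inhibition of growth. TGI marks complete inhibition of growth.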 Bounds are passed on as bounds.

The test system of the first assay is SR leukemia. Kind of assay: NCI tumour cell line growth inhibition, 48 h.
For `CCCCc1c(O)nc(Nc2nc3ccccc3[nH]2)[nH]c1=O`, the TGI is over 100 µM.

Molecule `Cc1c(S(=O)(=O)c2ccccc2)c(N)n(Cc2ccccc2)c1C` came in with a TGI of over 100 µM.

`COC(=O)C1(Cc2ccccc2)Cc2cc3c(cc2C1=O)CCC3` (configuration not stated) yielded a TGI of 47.2 µM.

Molecule `Cc1ccc(-c2cc(N)n(-c3nc4c([nH]3)c(=O)n(C)c(=O)n4C)n2)cc1` displayed a TGI of over 100 µM.

As to `COc1ccc(N2C(=O)C3c4[nH]c5ccc([N+](=O)[O-])cc5c4C4CCC(C(C)(C)C)CC4C3C2=O)cc1` (configuration not stated), the TGI came to 8.56 µM.

`CCOC(=O)CCC(NC(=O)c1ccc(OCc2nc3cc(C(F)(F)F)ccc3nc2-c2ccccc2)cc1)C(=O)OCC` (configuration not stated) registered a TGI of over 100 µM.

`O=C(O)c1ccc(NC(c2ccccc2)c2ccc3cccnc3c2O)cc1` (configuration not stated) had a TGI of over 100 µM.

In turn, `CC12CC(c3ccccc3O1)C(C(=O)Nc1ccc(F)cc1)C(=O)N2` (configuration not stated) returned a TGI of over 100 µM.

In turn, `O=c1c2c3ccccc3[nH]c2c2cccc3c2n1CCC3` displayed a TGI of 67.5 µM.

As to `COc1ccc(-c2c(C#N)c(N)n(C3OC(CO)C(O)C(O)C3O)c(=S)c2C#N)cc1` (configuration not stated), the TGI was over 100 µM.

In the case of `CCOC(=O)c1sc2nc(SC)nc3c2c1N=CN3c1ccc(Br)cc1`, the TGI is over 100 µM.

`O=c1[nH]c2nc3ccccc3c(=O)n2/c1=C/c1ccc(O)cc1` came in with a TGI of over 100 µM.

Consider `Nc1nc(Cl)cc(NCC2(CO)CC(CCc3ccccc3)C2)n1` (configuration not stated), for which the TGI is over 88.8 µM.

As to `O=c1c2ccccc2[nH]c(=S)n1-c1ccc(N=Nc2cccc3c(O)cccc23)cc1`, the TGI was over 100 µM.

As for `COc1ccc(-c2c(C#N)c(S)n(C3OC(COC(C)=O)C(OC(C)=O)C(OC(C)=O)C3OC(C)=O)c(=O)c2C#N)cc1` (configuration not stated), the GI50 is 3.43 µM and 17.9 µM; the TGI was > 100 µM and 59.3 µM.

Take `C[C@]12OC[C@H](c3ccccc3)N1C(=O)C1[C@H]2CC12SCCS2` (some centres not stated): the TGI is over 100 µM.

In the case of `c1sc(NC2=NCCO2)c2c1CCCC2`, the TGI is over 100 µM.

The next assay concerns HS 578T breast. Kind of assay: NCI tumour cell line growth inhibition, 48 h.
Turning to `CCCCc1c(O)nc(Nc2nc3ccccc3[nH]2)[nH]c1=O`, the TGI was found to be 88 µM.

Turning to `Cc1c(S(=O)(=O)c2ccccc2)c(N)n(Cc2ccccc2)c1C`, the TGI is over 100 µM.

`COC(=O)C1(Cc2ccccc2)Cc2cc3c(cc2C1=O)CCC3` (configuration not stated) gave a TGI of over 100 µM.

In turn, `Cc1ccc(-c2cc(N)n(-c3nc4c([nH]3)c(=O)n(C)c(=O)n4C)n2)cc1` showed a TGI of over 100 µM.

`COc1ccc(N2C(=O)C3c4[nH]c5ccc([N+](=O)[O-])cc5c4C4CCC(C(C)(C)C)CC4C3C2=O)cc1` (configuration not stated) showed a TGI of over 100 µM.

The molecule `CCOC(=O)CCC(NC(=O)c1ccc(OCc2nc3cc(C(F)(F)F)ccc3nc2-c2ccccc2)cc1)C(=O)OCC` (configuration not stated) showed a TGI of over 100 µM.

Turning to `O=C(O)c1ccc(NC(c2ccccc2)c2ccc3cccnc3c2O)cc1` (configuration not stated), the TGI is over 73.7 µM.

For `CC12CC(c3ccccc3O1)C(C(=O)Nc1ccc(F)cc1)C(=O)N2` (configuration not stated), the TGI is over 100 µM.

For `O=c1c2c3ccccc3[nH]c2c2cccc3c2n1CCC3`, the TGI is over 100 µM.

The molecule `COc1ccc(-c2c(C#N)c(N)n(C3OC(CO)C(O)C(O)C3O)c(=S)c2C#N)cc1` (configuration not stated) returned a TGI of 47.4 µM.

Consider `CCOC(=O)c1sc2nc(SC)nc3c2c1N=CN3c1ccc(Br)cc1`, for which the TGI is over 100 µM.

The molecule `O=c1[nH]c2nc3ccccc3c(=O)n2/c1=C/c1ccc(O)cc1` returned a TGI of 69.7 µM.

`Nc1nc(Cl)cc(NCC2(CO)CC(CCc3ccccc3)C2)n1` (configuration not stated) registered a TGI of over 100 µM.

In turn, `O=c1c2ccccc2[nH]c(=S)n1-c1ccc(N=Nc2cccc3c(O)cccc23)cc1` returned a TGI of over 100 µM.

Take `COc1ccc(-c2c(C#N)c(S)n(C3OC(COC(C)=O)C(OC(C)=O)C(OC(C)=O)C3OC(C)=O)c(=O)c2C#N)cc1` (configuration not stated): the TGI is 93.7 µM and 95.5 µM.

Molecule `C[C@]12OC[C@H](c3ccccc3)N1C(=O)C1[C@H]2CC12SCCS2` (some centres not stated) returned a TGI of over 100 µM.

With `c1sc(NC2=NCCO2)c2c1CCCC2`, the TGI is over 100 µM.

Another assay relates to UACC-62 melanoma. Kind of assay: NCI tumour cell line growth inhibition, 48 h.
Molecule `CCCCc1c(O)nc(Nc2nc3ccccc3[nH]2)[nH]c1=O` returned a TGI of over 100 µM.

As to `Cc1c(S(=O)(=O)c2ccccc2)c(N)n(Cc2ccccc2)c1C`, the TGI is over 100 µM.

`COC(=O)C1(Cc2ccccc2)Cc2cc3c(cc2C1=O)CCC3` (configuration not stated) displayed a TGI of over 100 µM.

With `Cc1ccc(-c2cc(N)n(-c3nc4c([nH]3)c(=O)n(C)c(=O)n4C)n2)cc1`, the TGI was determined as 22.7 µM.

With `COc1ccc(N2C(=O)C3c4[nH]c5ccc([N+](=O)[O-])cc5c4C4CCC(C(C)(C)C)CC4C3C2=O)cc1` (configuration not stated), the TGI is over 100 µM.

The molecule `CCOC(=O)CCC(NC(=O)c1ccc(OCc2nc3cc(C(F)(F)F)ccc3nc2-c2ccccc2)cc1)C(=O)OCC` (configuration not stated) gave a TGI of over 100 µM.

Consider `O=C(O)c1ccc(NC(c2ccccc2)c2ccc3cccnc3c2O)cc1` (configuration not stated), for which the TGI is 36.7 µM.

`CC12CC(c3ccccc3O1)C(C(=O)Nc1ccc(F)cc1)C(=O)N2` (configuration not stated) showed a TGI of over 100 µM.

The molecule `O=c1c2c3ccccc3[nH]c2c2cccc3c2n1CCC3` registered a TGI of over 100 µM.

In turn, `COc1ccc(-c2c(C#N)c(N)n(C3OC(CO)C(O)C(O)C3O)c(=S)c2C#N)cc1` (configuration not stated) had a TGI of over 100 µM.

`CCOC(=O)c1sc2nc(SC)nc3c2c1N=CN3c1ccc(Br)cc1` gave a TGI of over 100 µM.

`O=c1[nH]c2nc3ccccc3c(=O)n2/c1=C/c1ccc(O)cc1` had a TGI of over 100 µM.

Take `Nc1nc(Cl)cc(NCC2(CO)CC(CCc3ccccc3)C2)n1` (configuration not stated): the TGI is over 100 µM.

For `O=c1c2ccccc2[nH]c(=S)n1-c1ccc(N=Nc2cccc3c(O)cccc23)cc1`, the TGI was determined as 68 µM.

`COc1ccc(-c2c(C#N)c(S)n(C3OC(COC(C)=O)C(OC(C)=O)C(OC(C)=O)C3OC(C)=O)c(=O)c2C#N)cc1` (configuration not stated): the TGI was 97.9 µM and 61.9 µM.

For the molecule `C[C@]12OC[C@H](c3ccccc3)N1C(=O)C1[C@H]2CC12SCCS2` (some centres not stated), the TGI is over 100 µM.

For `c1sc(NC2=NCCO2)c2c1CCCC2`, the TGI was over 100 µM.
